According to patent US20260053171A1, “METHANOGEN INHIBITORS” (AGRIZERONZ LIMITED PARTNERSHIP, priority 2022, published 2026):

Test system: methane production in rumen fluid
Assay: Rumen in vitro (RIV) assay, methane production from rumen fluid incubations
Format: cell-based, cattle
Settings: Bos taurus, read-out: RIV % methane reduction +/− SD
Outline: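 Rumen fluid from two fistulated cattle diluted 12 ml in 48 ml buffer with ryegrass substrate, incubated in sealed bottles at 39° C for 24-48 h in duplicate. Inhibitors added in DMF (stocks 1000-fold above highest assay level); total gas, methane and H2 measured automatically; 30 μM BES positive control, no-inhibitor negative control.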

SMILES	inhibition at 2 µM [%]	inhibition at 10 µM [%]	inhibition at 50 µM [%]
CS(=O)(=O)NC(=O)c1cccc(N2N=C(c3ccc(Cl)cc3)CC2c2ccc3nccnc3c2)c1 (stereo not drawn) [Compound 72, 3-(3-(4-Chlorophenyl)-5-(quinoxalin-6-yl)-4,5-dihydro-1H-pyrazol-1-yl)-N-(methylsulfonyl)benzamide]	14.3 ± 4.7	82.5 ± 2.5	
O=C(O)CCC(=O)N1N=C2c3ccc(Cl)cc3CCC2C1c1ccc2nccnc2c1 (stereo not drawn) [Compound 73, 4-(7-Chloro-3-(quinoxalin-6-yl)-3,3a,4,5-tetrahydro-2H-benzo[g]indazol-2-yl)-4-oxobutanoic acid]		18.8 ± 1.6	78 ± 1.9
O=C(O)CCC(=O)N1N=C2c3cc(-c4ccccc4)ccc3CCC2C1c1ccc2nccnc2c1 (stereo not drawn) [Compound 74, 4-Oxo-4-(8-phenyl-3-(quinoxalin-6-yl)-3,3a,4,5-tetrahydro-2H-benzo[g]indazol-2-yl)butanoic acid]	9 ± 1.9	87.8 ± 0.7	97.2 ± 0.5
O=C(O)CCC(=O)N1N=C2c3ccc(-c4ccccc4)cc3CCC2C1c1ccc2nccnc2c1 (stereo not drawn) [Compound 75, 4-Oxo-4-(7-phenyl-3-(quinoxalin-6-yl)-3,3a,4,5-tetrahydro-2H-benzo[g]indazol-2-yl)butanoic acid]	15.8 ± 4.5	87.5 ± 0.6	92.8 ± 0.5
O=C(O)CCC(=O)N1N=C2c3ccc(-c4ccc(OC(F)(F)F)cc4)cc3CCC2C1c1ccc2nccnc2c1 (stereo not drawn) [Compound 76, 4-Oxo-4-(3-(quinoxalin-6-yl)-7-(4-(trifluoromethoxy)phenyl)-3,3a,4,5-tetrahydro-2H-benzo[g]indazol-2-yl)butanoic acid]	21.1 ± 3.2	77.3 ± 1.3	96.5
O=C(O)CCC(=O)N1N=C(c2ccc3nccnc3c2)CC1c1ccc(Cl)cc1 (stereo not drawn) [Compound 77, 4-(5-(4-Chlorophenyl)-3-(quinoxalin-6-yl)-4,5-dihydro-1H-pyrazol-1-yl)-4-oxobutanoic acid]			77 ± 0.4
CCCOc1ccc(-c2ccc(C3=NN(C(=O)CCC(=O)O)C(c4ccc5nccnc5c4)C3)cc2)cc1 (stereo not drawn) [Compound 78, 4-Oxo-4-(3-(4′-propoxy-[1,1′-biphenyl]-4-yl)-5-(quinoxalin-6-yl)-4,5-dihydro-1H-pyrazol-1-yl)butanoic acid]	39.8 ± 18.5	88.8 ± 2	
CCOc1ccc(-c2ccc(C3=NN(C(=O)CCC(=O)O)C(c4ccc5nccnc5c4)C3)cc2)cc1 (stereo not drawn) [Compound 79, 4-(3-(4′-Ethoxy-[1,1′-biphenyl]-4-yl)-5-(quinoxalin-6-yl)-4,5-dihydro-1H-pyrazol-1-yl)-4-oxobutanoic acid]	25.2 ± 2.5	81.5 ± 0.1	
CCCCOc1ccc(-c2ccc(C3=NN(C(=O)CCC(=O)O)C(c4ccc5nccnc5c4)C3)cc2)cc1 (stereo not drawn) [Compound 80, 4-(3-(4′-Butoxy-[1,1′-biphenyl]-4-yl)-5-(quinoxalin-6-yl)-4,5-dihydro-1H-pyrazol-1-yl)-4-oxobutanoic acid]	21.9 ± 4.3	89.4 ± 2.5	
CC(C)(C)Oc1ccc(-c2ccc(C3=NN(C(=O)CCC(=O)O)C(c4ccc5nccnc5c4)C3)cc2)cc1 (stereo not drawn) [Compound 81, 4-(3-(4′-(tert-Butoxy)-[1,1′-biphenyl]-4-yl)-5-(quinoxalin-6-yl)-4,5-dihydro-1H-pyrazol-1-yl)-4-oxobutanoic acid]		29.8 ± 17.8	
CC(C)COc1ccc(-c2ccc(C3=NN(C(=O)CCC(=O)O)C(c4ccc5nccnc5c4)C3)cc2)cc1 (stereo not drawn) [Compound 82, 4-(3-(4′-Isobutoxy-[1,1′-biphenyl]-4-yl)-5-(quinoxalin-6-yl)-4,5-dihydro-1H-pyrazol-1-yl)-4-oxobutanoic acid]	9.3 ± 7.6	75.7 ± 4.6	
CCC(C)Oc1ccc(-c2ccc(C3=NN(C(=O)CCC(=O)O)C(c4ccc5nccnc5c4)C3)cc2)cc1 (stereo not drawn) [Compound 83, 4-(3-(4′-(sec-Butoxy)-[1,1′-biphenyl]-4-yl)-5-(quinoxalin-6-yl)-4,5-dihydro-1H-pyrazol-1-yl)-4-oxobutanoic acid]	< 5	69.2 ± 1.8	
O=C(O)CCC(=O)N1N=C(c2ccc(-c3ccc(OC4CC4)cc3)cc2)CC1c1ccc2nccnc2c1 (stereo not drawn) [Compound 84, 4-(3-(4′-Cyclopropoxy-[1,1′-biphenyl]-4-yl)-5-(quinoxalin-6-yl)-4,5-dihydro-1H-pyrazol-1-yl)-4-oxobutanoic acid]	9.8 ± 1	75.1 ± 4.2	
O=C(O)CCC(=O)N1N=C(c2ccc(-c3ccc(OC4CCCC4)cc3)cc2)CC1c1ccc2nccnc2c1 (stereo not drawn) [Compound 85, 4-(3-(4′-(Cyclopentyloxy)-[1,1′-biphenyl]-4-yl)-5-(quinoxalin-6-yl)-4,5-dihydro-1H-pyrazol-1-yl)-4-oxobutanoic acid]	17.9 ± 7.3	71.8 ± 4.5	
CC(C)Cc1ccc(-c2ccc(C3=NN(C(=O)CCC(=O)O)C(c4ccc5nccnc5c4)C3)cc2)cc1 (stereo not drawn) [Compound 86, 4-(3-(4′-Isobutyl-[1,1′-biphenyl]-4-yl)-5-(quinoxalin-6-yl)-4,5-dihydro-1H-pyrazol-1-yl)-4-oxobutanoic acid]		29 ± 8.6	
CC(C)(C)c1ccc(-c2ccc(C3=NN(C(=O)CCC(=O)O)C(c4ccc5nccnc5c4)C3)cc2)cc1 (stereo not drawn) [Compound 87, 4-(3-(4′-(tert-Butyl)-[1,1′-biphenyl]-4-yl)-5-(quinoxalin-6-yl)-4,5-dihydro-1H-pyrazol-1-yl)-4-oxobutanoic acid]		6 ± 0.5	
O=C(O)CCC(=O)N1N=C(c2ccc(-c3ccc(CC(F)(F)F)cc3)cc2)CC1c1ccc2nccnc2c1 (stereo not drawn) [Compound 88, 4-Oxo-4-(5-(quinoxalin-6-yl)-3-(4′-(2,2,2-trifluoroethyl)-[1,1′-biphenyl]-4-yl)-4,5-dihydro-1H-pyrazol-1-yl)butanoic acid]	< 5	83 ± 1.1	
COCc1ccc(-c2ccc(C3=NN(C(=O)CCC(=O)O)C(c4ccc5nccnc5c4)C3)cc2)cc1 (stereo not drawn) [Compound 89, 4-(3-(4′-(Methoxymethyl)-[1,1′-biphenyl]-4-yl)-5-(quinoxalin-6-yl)-4,5-dihydro-1H-pyrazol-1-yl)-4-oxobutanoic acid]		21.9 ± 7	85 ± 1.7
COc1cccc(-c2ccc(C3=NN(C(=O)CCC(=O)O)C(c4ccc5nccnc5c4)C3)cc2)c1 (stereo not drawn) [Compound 90, 4-(3-(3′-Methoxy-[1,1′-biphenyl]-4-yl)-5-(quinoxalin-6-yl)-4,5-dihydro-1H-pyrazol-1-yl)-4-oxobutanoic acid]		6.9 ± 2.2	84.2
COCCOc1ccc(-c2ccc(C3=NN(C(=O)CCC(=O)O)C(c4ccc5nccnc5c4)C3)cc2)cc1 (stereo not drawn) [Compound 91, 4-(3-(4′-(2-Methoxyethoxy)-[1,1′-biphenyl]-4-yl)-5-(quinoxalin-6-yl)-4,5-dihydro-1H-pyrazol-1-yl)-4-oxobutanoic acid]	< 5	73.2 ± 2.8	
O=C(O)CCC(=O)N1N=C(c2ccc(-c3ccc(OCC(F)(F)F)cc3)cc2)CC1c1ccc2nccnc2c1 (stereo not drawn) [Compound 92, 4-Oxo-4-(5-(quinoxalin-6-yl)-3-(4′-(2,2,2-trifluoroethoxy)-[1,1′-biphenyl]-4-yl)-4,5-dihydro-1H-pyrazol-1-yl)butanoic acid]	32.1 ± 0.8	81.4 ± 3.1	
CC(C)Sc1ccc(-c2ccc(C3=NN(C(=O)CCC(=O)O)C(c4ccc5nccnc5c4)C3)cc2)cc1 (stereo not drawn) [Compound 93, 4-(3-(4′-(Isopropylthio)-[1,1′-biphenyl]-4-yl)-5-(quinoxalin-6-yl)-4,5-dihydro-1H-pyrazol-1-yl)-4-oxobutanoic acid]		49.1 ± 10.8	
O=C(O)CCC(=O)N1N=C(c2ccc(-c3ccc(SC(F)(F)F)cc3)cc2)CC1c1ccc2nccnc2c1 (stereo not drawn) [Compound 94, 4-Oxo-4-(5-(quinoxalin-6-yl)-3-(4′-((trifluoromethyl)thio)-[1,1′-biphenyl]-4-yl)-4,5-dihydro-1H-pyrazol-1-yl)butanoic acid]		32.7 ± 1.2	
CN(C)c1ccc(-c2ccc(C3=NN(C(=O)CCC(=O)O)C(c4ccc5nccnc5c4)C3)cc2)cc1 (stereo not drawn) [Compound 95, 4-(3-(4′-(Dimethylamino)-[1,1′-biphenyl]-4-yl)-5-(quinoxalin-6-yl)-4,5-dihydro-1H-pyrazol-1-yl)-4-oxobutanoic acid]		68.3 ± 2.1	
O=C(O)CCC(=O)N1N=C(c2ccc(-c3ccc(N4CCCCC4)cc3)cc2)CC1c1ccc2nccnc2c1 (stereo not drawn) [Compound 96, 4-Oxo-4-(3-(4′-(piperidin-1-yl)-[1,1′-biphenyl]-4-yl)-5-(quinoxalin-6-yl)-4,5-dihydro-1H-pyrazol-1-yl)butanoic acid]		8.2 ± 2.5	73.3 ± 12.1
COc1cccc(-c2cccc(C3=NN(C(=O)CCC(=O)O)C(c4ccc5nccnc5c4)C3)c2)c1 (stereo not drawn) [Compound 97, 4-(3-(3′-Methoxy-[1,1′-biphenyl]-3-yl)-5-(quinoxalin-6-yl)-4,5-dihydro-1H-pyrazol-1-yl)-4-oxobutanoic acid]		5.4 ± 0.2	76 ± 1.4
O=C(O)CCC(=O)N1N=C(c2cccc(-c3cccc(OC(F)(F)F)c3)c2)CC1c1ccc2nccnc2c1 (stereo not drawn) [Compound 98, 4-Oxo-4-(5-(quinoxalin-6-yl)-3-(3′-(trifluoromethoxy)-[1,1′-biphenyl]-3-yl)-4,5-dihydro-1H-pyrazol-1-yl)butanoic acid]		15.6 ± 0.6	91 ± 2.7
COc1ccc(-c2cccc(C3=NN(C(=O)CCC(=O)O)C(c4ccc5nccnc5c4)C3)c2)cc1 (stereo not drawn) [Compound 99, 4-(3-(4′-Methoxy-[1,1′-biphenyl]-3-yl)-5-(quinoxalin-6-yl)-4,5-dihydro-1H-pyrazol-1-yl)-4-oxobutanoic acid]		< 5	71.8
CC(C)Oc1ccc(-c2ccc(C3=NN(C(=O)CCC(=O)O)C(c4ccc5nccnc5c4)C3)cc2)cc1F (stereo not drawn) [Compound 100, 4-(3-(3′-Fluoro-4′-isopropoxy-[1,1′-biphenyl]-4-yl)-5-(quinoxalin-6-yl)-4,5-dihydro-1H-pyrazol-1-yl)-4-oxobutanoic acid]	25 ± 7.8	89.2 ± 3	
